System: IL-2 secretion by Jurkat T cells
Assay: Inhibition of IL-2 secretion (PHA-stimulated Jurkat T cells, ELISA)
Format: cell-based
Conditions: Homo sapiens, 20 to 24 hours
Method: The CRAC channel modulatory activity of the compounds were thus evaluated by measuring the secretion of IL-2 by antigen stimulated T-cells in vitro. Alternatively, such activity can also be evaluated by assay methods known to one skilled in the art.
Inhibition of IL-2 secretion: Jurkat T cells were seeded at a density of 0.5 to 1 million cells per well in RPMI medium. Test compounds from this invention were added to the cells at different concentrations. This was followed by the addition of PHA, a T cell mitogen after 10 minutes. The cells were then incubated for 20 to 24 hours in a CO2 incubator at 37° C. After incubation with the compounds, cells were centrifuged; the supernatant was collected and processed for ELISA to quantitate the amount of IL-2 secreted. A commercial ELISA kit (R&D Systems, Inc. Minneapolis, Minn., USA) was used to estimate the IL-2 concentrations. Amount of IL-2 secreted by cells stimulated with PHA was considered as a 100% maximal signal and the decrease in amount of IL-2 secreted by cells treated with the test compounds was expressed as percent inhibition of the maximal signal. The dose response data was analyzed using 4-parametric sigmoidal dose response (variable slope) curve-fit.

| IC50 | Compound |
| --- | --- |
| 25 to 50 nM | Cc1cccc2c1OC1(C=C2c2ccc(C(=O)Nc3c(F)cncc3F)cc2)CCC1 [Example 111, N-(3,5-Difluoropyridin-4-yl)-4-(8-methylspiro[chromene-2,1′-cyclobutan]-4-yl)benzamide] |
| < 25 nM | Cc1ccc2c(c1)C(c1ccc(NC(=O)c3c(F)cccc3F)cc1)=CC1(CCC1)O2 [Example 75, 2,6-Difluoro-N-(4-(6-methylspiro[chromene-2,l′-cyclobutan]-4-yl)phenyl)benzamide] |
| 25 to 50 nM | Cc1cc2c(cc1-c1ccc(NC(=O)c3c(F)cccc3F)cc1)OC(C)(C)CC2=O [Example 1, 2,6-Difluoro-N-(4-(2,2,6-trimethyl-4-oxochroman-7-yl)phenyl)benzamide] |
